The source of these data is US20220002314A1 (priority 2018, published 2022).

Read-outs that look alike come from different tables or passages of the source.

Experiment [1] concerns the target Human α2δ-1 subunit of Cav2.2 calcium channel (Homo sapiens, UniProt P54289). Briefly: biochemical. It is filed as binding.
Experiment [2] deals with Human μ-opioid receptor (Homo sapiens, UniProt P35372). Briefly: biochemical. Type of experiment: binding.
Sequence of Human μ-opioid receptor (P35372 whole entry): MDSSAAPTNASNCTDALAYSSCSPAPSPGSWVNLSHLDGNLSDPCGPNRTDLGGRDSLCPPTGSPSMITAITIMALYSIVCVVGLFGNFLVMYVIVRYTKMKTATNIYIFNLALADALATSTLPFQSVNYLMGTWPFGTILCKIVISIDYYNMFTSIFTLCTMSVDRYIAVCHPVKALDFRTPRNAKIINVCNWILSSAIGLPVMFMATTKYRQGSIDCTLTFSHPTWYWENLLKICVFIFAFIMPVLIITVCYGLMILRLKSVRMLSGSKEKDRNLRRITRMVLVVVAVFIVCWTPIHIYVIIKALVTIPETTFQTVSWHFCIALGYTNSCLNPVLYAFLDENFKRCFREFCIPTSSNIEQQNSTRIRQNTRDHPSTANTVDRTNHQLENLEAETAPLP

Sequence of Human α2δ-1 subunit of Cav2.2 calcium channel (P54289 25-1103): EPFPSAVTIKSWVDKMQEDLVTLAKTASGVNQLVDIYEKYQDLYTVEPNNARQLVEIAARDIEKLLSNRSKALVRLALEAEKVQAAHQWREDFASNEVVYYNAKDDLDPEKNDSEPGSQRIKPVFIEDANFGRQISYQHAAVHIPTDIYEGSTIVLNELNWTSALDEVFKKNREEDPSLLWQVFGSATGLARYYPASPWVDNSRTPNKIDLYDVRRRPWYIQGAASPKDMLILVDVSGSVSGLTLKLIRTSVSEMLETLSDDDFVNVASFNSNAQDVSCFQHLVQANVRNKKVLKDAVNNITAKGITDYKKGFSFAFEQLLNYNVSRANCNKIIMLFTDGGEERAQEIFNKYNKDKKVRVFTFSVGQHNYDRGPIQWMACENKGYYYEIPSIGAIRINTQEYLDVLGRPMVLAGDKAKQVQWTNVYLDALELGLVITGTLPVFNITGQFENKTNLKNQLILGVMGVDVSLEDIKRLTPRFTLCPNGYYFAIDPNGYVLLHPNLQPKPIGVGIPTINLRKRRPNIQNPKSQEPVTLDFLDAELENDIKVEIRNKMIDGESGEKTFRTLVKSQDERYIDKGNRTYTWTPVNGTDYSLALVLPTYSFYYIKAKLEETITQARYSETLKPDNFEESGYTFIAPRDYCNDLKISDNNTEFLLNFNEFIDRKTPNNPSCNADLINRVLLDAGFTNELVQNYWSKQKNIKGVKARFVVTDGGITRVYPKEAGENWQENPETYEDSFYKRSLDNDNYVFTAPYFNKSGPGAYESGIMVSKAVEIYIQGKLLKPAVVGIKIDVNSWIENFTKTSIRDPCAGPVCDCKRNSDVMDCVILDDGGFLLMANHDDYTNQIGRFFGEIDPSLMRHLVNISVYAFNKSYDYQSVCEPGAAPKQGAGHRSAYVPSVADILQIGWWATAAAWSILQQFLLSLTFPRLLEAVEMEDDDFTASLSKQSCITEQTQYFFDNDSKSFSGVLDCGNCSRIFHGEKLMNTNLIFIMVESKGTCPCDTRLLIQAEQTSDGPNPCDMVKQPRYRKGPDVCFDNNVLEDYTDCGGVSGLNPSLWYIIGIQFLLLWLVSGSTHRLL

Regarding `CCC[C@H](c1nc2ccc(Br)cc2c(=O)n1CC)[C@H]1CCNCC1(F)F` (single isomer, unassigned) [Example 189], the Ki was less than 500 nM in experiment [1] and greater than 500 nM in experiment [2].

In the case of `CCCC(c1nc2ccc(Br)cc2c(=O)n1CC)N1C[C@@H](C)N[C@@H](C)C1` (stereo partly drawn) [Example 1, 6-Bromo-2-(1-((3S,5R)-3,5-dimethylpiperazin-1-yl)butyl)-3-ethylquinazolin-4(3H)-one], the figures for the Ki in experiment [1] and in experiment [2] were less than 500 nM and greater than 500 nM, respectively.

Consider `CCCC(c1nc2ccccc2c(=O)n1C)N1C[C@@H](C)N[C@@H](C)C1` (stereo partly drawn) [Example 2, 2-(1-((3S,5R)-3,5-dimethylpiperazin-1-yl)butyl)-3-methylquinazolin-4(3H)-one], for which the results for the Ki in experiment [1] and in experiment [2] were less than 500 nM and greater than 500 nM, respectively.

In the case of `CCCC(c1nc2cc(C)ccc2c(=O)n1CC)N1C[C@@H](C)N[C@@H](C)C1` (stereo partly drawn) [Example 4, 2-(1-((3S,5R)-3,5-dimethylpiperazin-1-yl)butyl)-3-ethyl-7-methylquinazolin-4(3H)-one], the Ki in experiment [1] was less than 500 nM; in experiment [2], greater than 500 nM.

For the molecule `CCCC(c1nc2c(Br)c(OC)ccc2c(=O)n1CC)N1C[C@@H](C)N[C@@H](C)C1` (stereo partly drawn) [Example 5, 8-bromo-2-(1-((3S,5R)-3,5-dimethylpiperazin-1-yl)butyl)-3-ethyl-7-methoxyquinazolin-4(3H)-one], the Ki in experiment [1] (read-out: α2δ-1 binding) was 500 to 5000 nM; in experiment [2] (read-out: μ-binding) it was greater than 500 nM.

As for `CCCC(c1nc2cc(OC)ccc2c(=O)n1CC)N1C[C@@H](C)N[C@@H](C)C1` (stereo partly drawn) [Example 6, 2-(1-((3S,5R)-3,5-dimethylpiperazin-1-yl)butyl)-3-ethyl-7-methoxyquinazolin-4(3H)-one], the Ki in experiment [1] is less than 500 nM; in experiment [2], greater than 500 nM.

In the case of `CCCC(c1nc2cc(C(=O)OC)ccc2c(=O)n1CC)N1C[C@@H](C)N[C@@H](C)C1` (stereo partly drawn) [Example 7, methyl 2-(1-((3S,5R)-3,5-dimethylpiperazin-1-yl)butyl)-3-ethyl-4-oxo-3,4-dihydroquinazoline-7-carboxylate], the Ki in experiment [1] was less than 500 nM; in experiment [2], 100 to 500 nM.

`CCCC(c1nc2cc(Br)ccc2c(=O)n1CC)N1C[C@@H](C)N[C@@H](C)C1` (stereo partly drawn) [Example 9, 7-bromo-2-(1-((3S,5R)-3,5-dimethylpiperazin-1-yl)butyl)-3-ethylquinazolin-4(3H)-one]: the Ki in experiment [1] is less than 500 nM; in experiment [2], greater than 500 nM.

Consider `CCCC(c1nc2cc(O)ccc2c(=O)n1C)N1C[C@@H](C)N[C@@H](C)C1` (stereo partly drawn) [Example 10, 2-(1-((3S,5R)-3,5-dimethylpiperazin-1-yl)butyl)-7-hydroxy-3-methylquinazolin-4(3H)-one], for which the Ki was less than 500 nM in experiment [1] and greater than 500 nM in experiment [2].

Consider `CCCC(c1nc2cc(F)ccc2c(=O)n1CC)N1C[C@@H](C)N[C@@H](C)C1` (stereo partly drawn) [Example 11, 2-(1-((3S,5R)-3,5-dimethylpiperazin-1-yl)butyl)-3-ethyl-7-fluoroquinazolin-4(3H)-one], for which the Ki is less than 500 nM in experiment [1] and greater than 500 nM in experiment [2].

Turning to `CCCC(c1nc2ccc(O)cc2c(=O)n1CC)N1C[C@@H](C)N[C@@H](C)C1` (stereo partly drawn) [Example 12, 2-(1-((3S,5R)-3,5-dimethylpiperazin-1-yl)butyl)-3-ethyl-6-hydroxyquinazolin-4(3H)-one], the Ki in experiment [1] was less than 500 nM; in experiment [2] it was greater than 500 nM.

On to `CCCC(c1nc2c(Br)cccc2c(=O)n1CC)N1C[C@@H](C)N[C@@H](C)C1` (stereo partly drawn) [Example 13, 8-bromo-2-(1-((3S,5R)-3,5-dimethylpiperazin-1-yl)butyl)-3-ethylquinazolin-4(3H)-one], for which the Ki in experiment [1] was greater than 5000 nM; in experiment [2] (read-out: μ-binding), greater than 500 nM.

For the molecule `CCCC(c1nc2cccc(Br)c2c(=O)n1CC)N1C[C@@H](C)N[C@@H](C)C1` (stereo partly drawn) [Example 14, 5-bromo-2-(1-((3S,5R)-3,5-dimethylpiperazin-1-yl)butyl)-3-ethylquinazolin-4(3H)-one], the Ki was less than 500 nM in experiment [1] and greater than 500 nM in experiment [2].

With `CCCC(c1nc2cccc(O)c2c(=O)n1CC)N1C[C@@H](C)N[C@@H](C)C1` (stereo partly drawn) [Example 15, 2-(1-((3S,5R)-3,5-dimethylpiperazin-1-yl)butyl)-3-ethyl-5-hydroxyquinazolin-4(3H)-one], the values for the Ki in experiment [1] and in experiment [2] were less than 500 nM and greater than 500 nM, respectively.

In the case of `CCCC(c1nc2ccc(Br)cc2c(=O)n1C)N1C[C@@H](C)N[C@@H](C)C1` (stereo partly drawn) [Example 16, 6-bromo-2-(1-((3S,5R)-3,5-dimethylpiperazin-1-yl)butyl)-3-methylquinazolin-4(3H)-one], the results for the Ki in experiment [1] and in experiment [2] were less than 500 nM and greater than 500 nM, respectively.

As to `CCCC(c1nc2cc(Br)ccc2c(=O)n1C)N1C[C@@H](C)N[C@@H](C)C1` (stereo partly drawn) [Example 17, 7-bromo-2-(1-((3S,5R)-3,5-dimethylpiperazin-1-yl)butyl)-3-methylquinazolin-4(3H)-one], the Ki was less than 500 nM in experiment [1] and greater than 500 nM in experiment [2].

For `CCCC(c1nc2cc(F)c(Br)cc2c(=O)n1CC)N1C[C@@H](C)N[C@@H](C)C1` (stereo partly drawn) [Example 18, 6-bromo-2-(1-((3S,5R)-3,5-dimethylpiperazin-1-yl)butyl)-3-ethyl-7-fluoroquinazolin-4(3H)-one], the Ki in experiment [1] is less than 500 nM; in experiment [2] it was greater than 500 nM.

On to `CCCC(c1nc2cc(C)c(Br)cc2c(=O)n1CC)N1C[C@@H](C)N[C@@H](C)C1` (stereo partly drawn) [Example 19, 6-bromo-2-(1-((3S,5R)-3,5-dimethylpiperazin-1-yl)butyl)-3-ethyl-7-methylquinazolin-4(3H)-one], for which the Ki in experiment [1] is less than 500 nM; in experiment [2] it was greater than 500 nM.

For the molecule `CCCC(c1nc2c(C)cc(Br)cc2c(=O)n1CC)N1C[C@@H](C)N[C@@H](C)C1` (stereo partly drawn) [Example 20, 6-bromo-2-(1-((3S,5R)-3,5-dimethylpiperazin-1-yl)butyl)-3-ethyl-8-methylquinazolin-4(3H)-one], the Ki was greater than 5000 nM in experiment [1] (read-out: α2δ-1 binding) and greater than 500 nM in experiment [2] (read-out: μ-binding).

As to `CCCC(c1nc2ccc(Br)c(C)c2c(=O)n1CC)N1C[C@@H](C)N[C@@H](C)C1` (stereo partly drawn) [Example 21, 6-bromo-2-(1-((3S,5R)-3,5-dimethylpiperazin-1-yl)butyl)-3-ethyl-5-methylquinazolin-4(3H)-one], the Ki in experiment [1] was less than 500 nM; in experiment [2] it was greater than 500 nM.

Consider `CCCC(c1nc2ccc(Br)c(F)c2c(=O)n1CC)N1C[C@@H](C)N[C@@H](C)C1` (stereo partly drawn) [Example 22, 6-bromo-2-(1-((3S,5R)-3,5-dimethylpiperazin-1-yl)butyl)-3-ethyl-5-fluoroquinazolin-4(3H)-one], for which the Ki in experiment [1] is less than 500 nM; in experiment [2], greater than 500 nM.

In the case of `CCCC(c1nc2ccc(Br)c(Cl)c2c(=O)n1CC)N1C[C@@H](C)N[C@@H](C)C1` (stereo partly drawn) [Example 23, 6-bromo-5-chloro-2-(1-((3S,5R)-3,5-dimethylpiperazin-1-yl)butyl)-3-ethylquinazolin-4(3H)-one], the Ki in experiment [1] is less than 500 nM; in experiment [2], greater than 500 nM.

Turning to `CCCC(c1nc2ccc(NCC)cc2c(=O)n1CC)N1C[C@@H](C)N[C@@H](C)C1` (stereo partly drawn) [Example 24, 2-(1-((3S,5R)-3,5-dimethylpiperazin-1-yl)butyl)-3-ethyl-6-(ethylamino)quinazolin-4(3H)-one], the Ki is less than 500 nM in experiment [1] and greater than 500 nM in experiment [2].

For the molecule `CCCC(c1nc2cc(NCC)ccc2c(=O)n1CC)N1C[C@@H](C)N[C@@H](C)C1` (stereo partly drawn) [Example 25, 2-(1-((3S,5R)-3,5-dimethylpiperazin-1-yl)butyl)-3-ethyl-7-(ethylamino)quinazolin-4(3H)-one], the Ki in experiment [1] is less than 500 nM; in experiment [2], greater than 500 nM.

Consider `CCCC(c1nc2cc(N(CC)C(=O)OC(C)(C)C)ccc2c(=O)n1CC)N1C[C@@H](C)N[C@@H](C)C1` (stereo partly drawn) [Example 26, tert-butyl (2-(1-((3S,5R)-3,5-dimethylpiperazin-1-yl)butyl)-3-ethyl-4-oxo-3,4-dihydroquinazolin-7-yl)(ethyl)carbamate], for which the Ki was 500 to 5000 nM in experiment [1] (read-out: α2δ-1 binding) and greater than 500 nM in experiment [2] (read-out: μ-binding).

As for `CCCC(c1nc2cccnc2c(=O)n1CC)N1C[C@@H](C)N[C@@H](C)C1` (stereo partly drawn) [Example 27, 2-(1-((3S,5R)-3,5-dimethylpiperazin-1-yl)butyl)-3-ethylpyrido[3,2-d]pyrimidin-4(3H)-one], the figures for the Ki in experiment [1] and in experiment [2] were less than 500 nM and greater than 500 nM, respectively.

With `CCCC(c1nc2ncc(Br)cc2c(=O)n1CC)N1C[C@@H](C)N[C@@H](C)C1` (stereo partly drawn) [Example 28, 6-bromo-2-(1-((3S,5R)-3,5-dimethylpiperazin-1-yl)butyl)-3-ethylpyrido[2,3-d]pyrimidin-4(3H)-one], the Ki in experiment [1] is less than 500 nM; in experiment [2] it was greater than 500 nM.

For the molecule `CCC[C@H](c1nc2ccc(Br)cc2c(=O)n1CC)N1C[C@@H](C)N[C@@H](C)C1` [Example 29, 6-bromo-2-((R)-1-((3S,5R)-3,5-dimethylpiperazin-1-yl)butyl)-3-ethylquinazolin-4(3H)-one], the values for the Ki in experiment [1] and in experiment [2] were less than 500 nM and greater than 500 nM, respectively.

For `CCC[C@@H](c1nc2ccc(Br)cc2c(=O)n1CC)N1C[C@@H](C)N[C@@H](C)C1` [Example 30, 6-bromo-2-((S)-1-((3S,5R)-3,5-dimethylpiperazin-1-yl)butyl)-3-ethylquinazolin-4(3H)-one], the Ki was 500 to 5000 nM in experiment [1] and greater than 500 nM in experiment [2].

`CCC[C@@H](c1nc2ccccc2c(=O)n1C)N1C[C@@H](C)N[C@@H](C)C1` [Example 31, 2-((S)-1-((3S,5R)-3,5-dimethylpiperazin-1-yl)butyl)-3-methylquinazolin-4(3H)-one]: the Ki in experiment [1] was 500 to 5000 nM; in experiment [2], greater than 500 nM.

For `CCC[C@H](c1nc2ccccc2c(=O)n1C)N1C[C@@H](C)N[C@@H](C)C1` [Example 32, 2-((R)-1-((3S,5R)-3,5-dimethylpiperazin-1-yl)butyl)-3-methylquinazolin-4(3H)-one], the Ki was less than 500 nM in experiment [1] and greater than 500 nM in experiment [2].

As for `CCC[C@@H](c1nc2ccccc2c(=O)n1CC)N1C[C@@H](C)N[C@@H](C)C1` [Example 33, 2-((S)-1-((3S,5R)-3,5-Dimethylpiperazin-1-yl)butyl)-3-ethylquinazolin-4(3H)-one], the Ki in experiment [1] (read-out: α2δ-1 binding) lay within 500 to 5000 nM.

As to `CCC[C@H](c1nc2ccccc2c(=O)n1CC)N1C[C@@H](C)N[C@@H](C)C1` [Example 34, 2-((R)-1-((3S,5R)-3,5-dimethylpiperazin-1-yl)butyl)-3-ethylquinazolin-4(3H)-one], the Ki in experiment [1] was less than 500 nM; in experiment [2] it was greater than 500 nM.
